Values after ≈ are worked out from the molar mass of the structure shown. Read-outs that look alike come from different tables or passages of the source.
Experiments:
CHI Log D procedure = type: physicochemical; conditions: for CHI Log D: pH 7.4; for chromatographic logD: pH 7.4, CHI Log D
[1] = biological target: T1, full-length beta-Catenin (Uniprot ID P35222) (Homo sapiens, UniProt P35222); assay: Fluorescence polarization IC50 (beta-catenin / 5FAM-TCF4 10-53 competition); type: binding
T1 construct: 10 nM full-length beta-Catenin (Uniprot ID P35222)
T1 sequence (P35222 1-781): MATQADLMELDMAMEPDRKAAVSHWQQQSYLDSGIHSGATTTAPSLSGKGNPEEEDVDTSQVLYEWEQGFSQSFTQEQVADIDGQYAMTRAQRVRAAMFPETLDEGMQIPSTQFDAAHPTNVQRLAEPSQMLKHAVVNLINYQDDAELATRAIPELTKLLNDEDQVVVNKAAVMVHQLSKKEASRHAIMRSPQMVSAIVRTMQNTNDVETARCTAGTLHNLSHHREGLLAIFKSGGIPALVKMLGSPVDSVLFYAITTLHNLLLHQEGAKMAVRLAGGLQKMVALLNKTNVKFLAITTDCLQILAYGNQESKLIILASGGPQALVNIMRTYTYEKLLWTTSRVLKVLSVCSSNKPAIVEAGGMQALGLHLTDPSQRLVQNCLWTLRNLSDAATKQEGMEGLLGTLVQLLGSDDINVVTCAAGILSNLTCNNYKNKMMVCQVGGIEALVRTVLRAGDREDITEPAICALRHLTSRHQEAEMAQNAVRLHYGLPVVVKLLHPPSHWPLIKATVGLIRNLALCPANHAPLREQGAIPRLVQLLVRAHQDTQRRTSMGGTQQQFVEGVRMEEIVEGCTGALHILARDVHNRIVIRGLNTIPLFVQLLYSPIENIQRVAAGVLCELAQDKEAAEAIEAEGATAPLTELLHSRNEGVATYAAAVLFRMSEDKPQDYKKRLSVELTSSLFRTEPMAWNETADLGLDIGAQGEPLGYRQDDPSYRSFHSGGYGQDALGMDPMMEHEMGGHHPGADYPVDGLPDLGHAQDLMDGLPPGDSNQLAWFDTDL

Solubility in PBS = type: physicochemical
Procedure, shortened: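 The PBS solution was ultracentrifuged and the supernatant analyzed by HPLC. Its peak area was divided by that of a 50 μM peptide DMSO reference injection and multiplied by 50 uM to give solubility.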

[2] = fluorescence polarization, beta-catenin, read-out: FP EC50
[3] = fluorescence polarization, read-out: beta-Catenin FP IC50

Structure (SMILES) | CHI Log D (CHI Log D procedure) | IC50 ([1]; read-out: beta-Catenin FP IC50) [nM] | Solubility (Solubility in PBS) [µM] | chromatographic logD (CHI Log D procedure) | IC50 [1, 3] [nM] | IC50 ([1]; read-out: FP EC50) [nM] | further results
CC(=O)N1CCC[C@]12CC=CCCCC1(CCCC=CCCCOC(=O)N3CC[C@@](C(=O)N[C@@H](Cc4ccsc4)C(=O)N[C@@H](Cc4csc5ccccc45)C(=O)N[C@@H](CO)C(N)=O)(C3)NC(=O)[C@H](CCO)NC(=O)[C@H](Cc3ccccc3)NC(=O)[C@H](C)NC(=O)[C@H](C)NC(=O)[C@H](CN(CC(=O)O)CC(F)(F)F)NC(=O)[C@H](CC(=O)O)NC1=O)NC(=O)[C@H](CC(C)(C)C)NC(=O)[C@H](CC(=O)O)NC2=O (stereo partly drawn) [I-959, Ac-PL3-Asp-Npg-B5-Asp-TfeGA-Ala-Ala-Phe-Hse-PyrS2-3Thi-BztA-Ser-NH2] | −0.036 | 881 | 48 (≈ 94.8 µg/mL) | – | – | – | IC50 [1, 2]: 881 nM
CC(=O)N1CCC[C@]12CC=CCCCC1(CCCC=CCCCCCC[C@@](C)(C(=O)N[C@@H](Cc3ccccc3)C(=O)N[C@@H](Cc3c[nH]c4ccccc34)C(=O)N[C@@H](CCC(N)=O)C(N)=O)NC(=O)[C@H](C(C)C)NC(=O)[C@H](Cc3cccc(F)c3)NC(=O)[C@H](C)NC(=O)[C@H](C)NC(=O)[C@H](CC(=O)O)NC(=O)[C@H](CC(=O)O)NC1=O)NC(=O)[C@H](C)NC(=O)[C@H](CC(=O)O)NC2=O (stereo partly drawn) [I-265, Ac-PL3-Asp-Ala-B5-Asp-Asp-Ala-Ala-3FF-Val-S8-Phe-Trp-Gln-NH2] | 2.032 | – | 36 (≈ 64.8 µg/mL) | – | – | – | IC50 ([1]; Table E2-1, read-out: beta-Catenin FP IC50): 3760 nM; IC50 [1, 2]: 3760 nM
CC(=O)N1CCC[C@]12CC=CCCCC1(CCCC=CCCCCCC[C@@](C)(C(=O)N[C@@H](Cc3ccccc3)C(=O)N[C@@H](Cc3csc4ccccc34)C(=O)NC(Cc3cncn3C)C(N)=O)NC(=O)[C@H](CC(N)=O)NC(=O)[C@H](Cc3ccccc3)NC(=O)[C@H](C)NC(=O)[C@H](C)NC(=O)[C@H](CCC(=O)O)NC(=O)[C@H](CC(=O)O)NC1=O)NC(=O)[C@H](C)NC(=O)[C@H](CC(=O)O)NC2=O (single isomer, unassigned) [I-480, Ac-PL3-Asp-Ala-B5-Asp-Glu-Ala-Ala-Phe-Asn-S8-Phe-BztA-3MeH-NH2] | – | – | – | 2.1 | 176 | – | solubility at 15 min (Solubility in PBS; Solubility (uM)): 36 µM (≈ 66.6 µg/mL)
CC(=O)N1CCC[C@]12CC=CCCCC1(CCCC=CCCCOC(=O)N3CC[C@@](C(=O)N[C@@H](Cc4ccccc4Cl)C(=O)N[C@@H](Cc4csc5ccccc45)C(=O)N[C@H](C(N)=O)[C@@H](C)O)(C3)NC(=O)[C@H](Cc3ccccc3)NC(=O)[C@H](Cc3ccccc3)NC(=O)[C@H](C)NC(=O)[C@H](C)NC(=O)[C@H](CN(CC(=O)O)CC(F)(F)F)NC(=O)[C@H](CC(=O)O)NC1=O)NC(=O)[C@H](CC(C)(C)C)NC(=O)[C@H](CC(=O)O)NC2=O (stereo partly drawn) [I-991, Ac-PL3-Asp-Npg-B5-Asp-TfeGA-Ala-Ala-Phe-Phe-PyrS2-2C1F-BztA-Thr-NH2] | – | 51 | 10 (≈ 20.6 µg/mL) | 2.7 | – | – | –
CC[C@H](C)[C@@H]1NC(=O)[C@H](CC(=O)O)NC(=O)[C@]2(CC=CCCCC3(CCCC=CCCCCCC[C@@](C)(C(=O)N[C@@H](Cc4ccccc4)C(=O)N[C@@H](Cc4csc5ccccc45)C(=O)N[C@@H](CCC(N)=O)C(N)=O)NC(=O)[C@H](CCC(N)=O)NC(=O)[C@H](Cc4ccccc4)NC(=O)[C@H](C)NC(=O)[C@H](C)NC(=O)[C@H](CCC(=O)O)NC(=O)[C@H](CC(=O)O)NC3=O)NC1=O)CCCN2C(=O)Cc1ccccc1 (stereo partly drawn) [I-601, Bnc-PL3-Asp-Ile-B5-Asp-Glu-Ala-Ala-Phe-Gln-S8-Phe-BztA-Gln-NH2] | 2.748 | – | 43 (≈ 84.2 µg/mL) | – | – | 419 | IC50 ([1]; read-out: beta-Catenin FP IC50, fluorescence polarization): 419 nM
CC(=O)N1CCC[C@]12CC=CCCCC1(CCCC=CCCCCCC[C@@](C)(C(=O)N[C@@H](Cc3ccsc3)C(=O)N[C@@H](Cc3csc4ccccc34)C(=O)N[C@@H](CCC(N)=O)C(N)=O)NC(=O)[C@H](CC(N)=O)NC(=O)[C@H](Cc3ccccc3)NC(=O)[C@H](C)NC(=O)[C@H](C)NC(=O)[C@H](CC(=O)O)NC(=O)[C@H](CC(=O)O)NC1=O)NC(=O)[C@H](CC(C)(C)C)NC(=O)C[C@H](CC(=O)O)NC2=O (stereo partly drawn) [I-1163, Ac-PL3-RbGlu-Npg-B5-Asp-Asp-Ala-Ala-Phe-Asn-S8-3Thi-BztA-Gln-NH2] | 2.059 | – | 48 (≈ 90.7 µg/mL) | – | 691 | – | IC50 [1, 2]: 691 nM
CC(=O)N1CCC[C@]12CC=CCCCC1(CCCC=CCCCCCC[C@@](C)(C(=O)N[C@@H](Cc3ccccc3)C(=O)N[C@@H](Cc3csc4ccccc34)C(=O)N[C@@H](CCC(N)=O)C(N)=O)NC(=O)[C@H](CCC(N)=O)NC(=O)[C@H](Cc3ccccc3)NC(=O)[C@H](C)NC(=O)[C@H](C)NC(=O)[C@H](CCC(=O)O)NC(=O)[C@H](CC(=O)O)NC1=O)NC(=O)[C@H]([C@@H](C)O)NC(=O)[C@H](CC(=O)O)NC2=O (stereo partly drawn) [I-477, Ac-PL3-Asp-Thr-B5-Asp-Glu-Ala-Ala-Phe-Gln-S8-Phe-BztA-Gln-NH2] | – | – | – | 2 | 119 | – | Solubility (Solubility in PBS; Solubility (uM)): 49 µM (≈ 91.7 µg/mL)
CC(=O)N1CCC[C@]12CC=CCCCC1(CCCC=CCOC(=O)N(C)CCC[C@@](C)(C(=O)N[C@@H](Cc3ccsc3)C(=O)N[C@@H](Cc3csc4ccccc34)C(=O)N[C@@H](Cc3c[nH]cn3)C(N)=O)NC(=O)[C@H](CC(N)=O)NC(=O)[C@H](Cc3ccccc3)NC(=O)[C@H](C)NC(=O)[C@H](C)NC(=O)[C@H](CC(=O)O)NC(=O)[C@H](CC(=O)O)NC1=O)NC(=O)[C@H](CC(C)(C)C)NC(=O)[C@H](CC(=O)O)NC2=O (stereo partly drawn) [I-774, Ac-PL3-Asp-Npg-B5-Asp-Asp-Ala-Ala-Phe-Asn-SeN-3Thi-BztA-His-NH2] | 1.928 | 38 | 46 (≈ 88.7 µg/mL) | – | – | 38 | –
CC(=O)N1CCC[C@]12CC=CCCCC1(CCCC=CCCCCCC[C@@](C)(C(=O)N[C@@H](Cc3ccccc3F)C(=O)N[C@@H](Cc3csc4ccccc34)C(=O)N[C@@H](CCC(N)=O)C(N)=O)NC(=O)[C@H](CC(N)=O)NC(=O)[C@H](Cc3ccccc3)NC(=O)[C@H](C)NC(=O)[C@H](C)NC(=O)[C@H](CCC(=O)O)NC(=O)[C@H](CC(=O)O)NC1=O)NC(=O)[C@H](C)NC(=O)[C@H](CC(=O)O)NC2=O (stereo partly drawn) [I-434, Ac-PL3-Asp-Ala-B5-Asp-Glu-Ala-Ala-Phe-Asn-S8-2FF-BztA-Gln-NH2] | – | – | – | 2.05 | 67.5 | – | Solubility (Solubility in PBS; Solubility (uM)): 20 µM (≈ 36.9 µg/mL)
CC(=O)N1CCC[C@]12CC=CCCCC1(CCCC=CCCCCCC[C@@](C)(C(=O)N[C@@H](Cc3ccccc3)C(=O)N[C@@H](Cc3csc4ccccc34)C(=O)N[C@@H](Cc3c[nH]cn3)C(N)=O)NC(=O)[C@H](CC(N)=O)NC(=O)[C@H](Cc3ccccc3)NC(=O)[C@H](C)NC(=O)[C@H](C)NC(=O)[C@H](CC(=O)O)NC(=O)[C@H](CC(=O)O)NC1=O)NC(=O)[C@H](C)NC(=O)[C@H](CC(=O)O)NC2=O (stereo partly drawn) [I-466, Ac-PL3-Asp-Ala-B5-Asp-Asp-Ala-Ala-Phe-Asn-S8-Phe-BztA-His-NH2] | 2.069 | – | 50 (≈ 91.1 µg/mL) | – | 19 | 19 | –
CC(=O)N1CCC[C@]12CC=CCCCC1(CCCC=CCOC(=O)N(C)CCC[C@@](C)(C(=O)N[C@@H](Cc3ccsc3)C(=O)N[C@@H](Cc3csc4ccccc34)C(=O)N[C@@H](Cc3c[nH]cn3)C(N)=O)NC(=O)[C@H](CC(N)=O)NC(=O)[C@H](Cc3ccccc3)NC(=O)[C@H](C)NC(=O)[C@H](C)NC(=O)[C@H](CC(=O)O)NC(=O)[C@H](CC(=O)O)NC1=O)NC(=O)[C@H](CC(C)(C)C)NC(=O)[C@H](CC(=O)O)NC2=O (stereo partly drawn) [I-773, Ac-PL3-Asp-Npg-B5-Asp-Asp-Ala-Ala-Phe-Asn-SeN-3Thi-BztA-His-NH2] | 1.76 | 167 | 47 (≈ 90.7 µg/mL) | – | – | 167 | –
CC(=O)N1CCC[C@]12CC=CCCCC1(CCCC=CCCCCCC[C@@](C)(C(=O)N[C@@H](Cc3ccccc3)C(=O)N[C@@H](Cc3csc4ccccc34)C(=O)N[C@@H](Cc3c[nH]cn3)C(N)=O)NC(=O)[C@H]([C@@H](C)O)NC(=O)[C@H](Cc3ccccc3)NC(=O)[C@H](C)NC(=O)[C@H](C)NC(=O)[C@H](CCC(=O)O)NC(=O)[C@H](CC(=O)O)NC1=O)NC(=O)[C@H](C)NC(=O)[C@H](CC(=O)O)NC2=O (stereo partly drawn) [I-420, Ac-PL3-Asp-Ala-B5-Asp-Glu-Ala-Ala-Phe-Thr-S8-Phe-BztA-His-NH2] | – | – | – | 2.16 | 128 | – | Solubility (Solubility in PBS; Solubility (uM)): 24 µM (≈ 43.8 µg/mL)
CC[C@@H]1NC(=O)[C@H](CC(=O)O)NC(=O)[C@]2(CC=CCCCC3(CCCC=CCCCCCC[C@@](C)(C(=O)N[C@@H](Cc4ccccc4)C(=O)N[C@@H](Cc4csc5ccccc45)C(=O)N[C@@H](CCC(N)=O)C(N)=O)NC(=O)[C@H](CCC(N)=O)NC(=O)[C@H](Cc4ccccc4)NC(=O)[C@H](C)NC(=O)[C@H](C)NC(=O)[C@H](CCC(=O)O)NC(=O)[C@H](CC(=O)O)NC3=O)NC1=O)CCCN2C(C)=O (stereo partly drawn) [I-569, Ac-PL3-Asp-Abu-B5-Asp-Glu-Ala-Ala-Phe-Gln-S8-Phe-BztA-Gln-NH2] | 2.169 | – | 49 (≈ 90.9 µg/mL) | – | 42 | 42 | –
